From US12606561B2, “Substituted pyrazolo[1,5-a][1,3,5]triazines as CDK inhibitors” (QURIENT CO., LTD., priority 2018, dated 2026)

Tests used:
CDK1/Cyclin B = target: T1, CDK1/Cyclin B (Homo sapiens, UniProt P06493); test: Enzymatic assay for CDK1 (LANCE Ultra kinase assay, FRET based); type: biochemical; details: ATP at Km; read-out: CDK1 enzymatic activity IC50
T1 construct: purchased Invitrogen PR4768C
Procedure, shortened: (§1)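 Purified CDK–cyclin enzyme, ATP at Km; ULight peptide substrate; TR-FRET via Eu anti-phospho-Ab; inhibition scored.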

CDK2/Cyclin A = target: T2, CDK2/Cyclin A (Homo sapiens, UniProt P24941); test: Enzymatic assay for CDK2 (LANCE Ultra kinase assay, FRET based); type: biochemical; details: ATP at Km
T2 construct: purchased Invitrogen PV6290
Procedure, shortened: (§2)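 TR-FRET kinase assay at ATP Km with ULight-MBP peptide (68 nM) and Eu-anti-phospho-MBP antibody; CDK2/Cyclin A at […], CDK5/p25 at […]. 8-dose 4-fold compound dilutions; 60 min kinase reaction at 23° C., EDTA stop, 60 min detection, read at 615/665 nm.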

CDK5/p25 = target: T3, CDK5/p25 (Homo sapiens, UniProt Q00535); test: Enzymatic assay for CDK5 (LANCE Ultra kinase assay, FRET based); type: biochemical; details: ATP at Km
T3 construct: purchased Invitrogen PR8543B
Procedure, shortened: as §2

CDK7/Cyclin H/MNAT1 = target: T4, CDK7/Cyclin H/MNAT1 (Homo sapiens, UniProt P50613); test: Enzymatic assay for CDK7 (LANCE Ultra kinase assay, FRET based); type: biochemical; details: for IC50: ATP at Km
T4 construct: purchased Invitrogen PR6749B
Procedure, shortened: as §1

MV4-11 = test: Cellular MV4-11 viability assay (CellTiter-Glo, 72 hours); type: cell-based; details: Homo sapiens; MV4-11 cells
Procedure: Human […] cell line, MV4-11_(ATCC, Cat #CRL-9591), NSCLC (Non-small cell lung cancer) cell line H460 (ATCC, Cat #HTB-177), A2780 (ECACC, Cat #93112519) and OVCAR-3(ATCC, Cat #HTB-161) were obtained from ATCC. Cells were grown in RPMI-1640 media (Invitrogen, Cat #22400-089) supplemented with 10% FBS (Invitrogen, Cat #10099141) and 1% penicillin/streptomycin (Invitrogen, Cat #15070063) and cultured at 37° C., 5% CO2 in a humidified chamber. All cell lines were routinely tested for mycoplasma.
To effect of the CDK7 inhibitor to inhibit the growth of target cancer cells, viability assay were conducted a 72 hour time period. Briefly, the candidate cell line was plated in 96 well plate at the following density of cells respectively. 1×10^4 cells/well for MV4-11, 5×10^3 for H460 and OVCAR-3, and 1×10^3 for A2780. After 24 hours, the cells were treated with various concentrations of the compound (ranging from 0.0015 uM to 10 uM). DMSO solvent without compound served as a control and final DMSO concentration lest than 0.1%. After 72 hours of incubation at 37° C., 5% CO2 incubator, cells were analyzed for the viability using the CellTiter-Glo Luminescent Cell Viability Assay (Promega, Cat #G7570). All viability assays were performed in duplicate and Luminescence was read using an Envision (Perkin Elmer, USA). Data was analyzed using XLfit software.

A2780 = A2780 viability assay (CellTiter-Glo, 72 hours); type: cell-based; details: Homo sapiens; A2780 cells
Procedure, shortened: (§3)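 RPMI-1640/10% FBS; plate cells (MV4-11 1×10^4, OVCAR-3 5×10^3, A2780 1×10^3 per well); 24 h later add compound 0.0015–10 uM; 72 h, 37° C; CellTiter-Glo luminescence, duplicate wells.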

OVCAR-3 = OVCAR-3 viability assay (CellTiter-Glo, 72 hours); type: cell-based; details: Homo sapiens; OVCAR-3 cells
Procedure, shortened: as §3

T3 sequence (Q00535 whole entry): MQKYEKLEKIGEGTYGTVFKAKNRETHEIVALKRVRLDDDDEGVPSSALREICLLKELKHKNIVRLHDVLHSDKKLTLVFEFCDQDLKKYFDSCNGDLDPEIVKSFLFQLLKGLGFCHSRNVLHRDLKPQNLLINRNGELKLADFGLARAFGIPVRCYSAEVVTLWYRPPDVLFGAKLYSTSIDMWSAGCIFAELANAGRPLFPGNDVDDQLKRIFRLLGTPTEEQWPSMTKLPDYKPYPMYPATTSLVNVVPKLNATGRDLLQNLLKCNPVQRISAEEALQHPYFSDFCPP
T3 sequence (Q15078 99-307 partner limits assumed): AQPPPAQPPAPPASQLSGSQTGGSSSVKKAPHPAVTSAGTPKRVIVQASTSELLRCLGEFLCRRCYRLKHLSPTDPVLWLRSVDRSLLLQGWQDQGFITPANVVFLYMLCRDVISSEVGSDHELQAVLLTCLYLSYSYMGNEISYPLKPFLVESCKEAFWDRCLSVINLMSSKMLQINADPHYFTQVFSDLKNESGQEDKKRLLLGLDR
T4 sequence (P50613 whole entry): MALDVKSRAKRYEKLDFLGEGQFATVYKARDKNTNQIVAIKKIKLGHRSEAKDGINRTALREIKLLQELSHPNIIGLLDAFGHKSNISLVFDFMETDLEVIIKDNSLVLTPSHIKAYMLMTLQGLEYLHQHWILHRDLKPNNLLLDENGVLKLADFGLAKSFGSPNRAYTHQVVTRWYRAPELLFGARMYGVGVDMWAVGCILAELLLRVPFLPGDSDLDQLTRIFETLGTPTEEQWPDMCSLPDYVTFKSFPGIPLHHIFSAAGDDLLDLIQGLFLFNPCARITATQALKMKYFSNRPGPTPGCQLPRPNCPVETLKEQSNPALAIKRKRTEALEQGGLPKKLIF
T4 sequence (P51946 whole entry partner): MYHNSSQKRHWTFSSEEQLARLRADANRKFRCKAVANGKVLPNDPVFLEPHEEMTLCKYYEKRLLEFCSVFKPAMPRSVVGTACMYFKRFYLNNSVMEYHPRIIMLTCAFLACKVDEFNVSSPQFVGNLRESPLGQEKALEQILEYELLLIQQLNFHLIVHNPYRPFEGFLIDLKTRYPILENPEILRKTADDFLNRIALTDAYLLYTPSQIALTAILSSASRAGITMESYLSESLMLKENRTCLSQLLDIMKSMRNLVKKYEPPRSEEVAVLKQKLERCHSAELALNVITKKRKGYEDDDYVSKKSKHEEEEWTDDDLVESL
T4 sequence (P51948 whole entry partner): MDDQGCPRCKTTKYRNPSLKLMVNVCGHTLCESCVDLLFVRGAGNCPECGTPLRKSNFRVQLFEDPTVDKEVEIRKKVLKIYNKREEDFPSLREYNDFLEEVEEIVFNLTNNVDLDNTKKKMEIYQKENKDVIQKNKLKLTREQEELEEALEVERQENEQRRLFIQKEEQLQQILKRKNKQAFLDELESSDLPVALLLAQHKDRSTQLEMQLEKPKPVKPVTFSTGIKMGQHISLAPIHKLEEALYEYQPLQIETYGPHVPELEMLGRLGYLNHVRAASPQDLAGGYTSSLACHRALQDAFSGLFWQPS
T1 sequence (P06493 whole entry): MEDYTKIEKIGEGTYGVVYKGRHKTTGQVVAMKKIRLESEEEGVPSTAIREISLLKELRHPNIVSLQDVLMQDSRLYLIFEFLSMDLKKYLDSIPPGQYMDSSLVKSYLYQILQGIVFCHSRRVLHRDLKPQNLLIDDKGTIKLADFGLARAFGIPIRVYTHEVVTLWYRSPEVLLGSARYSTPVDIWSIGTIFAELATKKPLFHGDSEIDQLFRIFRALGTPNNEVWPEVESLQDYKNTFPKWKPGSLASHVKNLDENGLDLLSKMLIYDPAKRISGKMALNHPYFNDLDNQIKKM
T1 sequence (P14635 whole entry partner): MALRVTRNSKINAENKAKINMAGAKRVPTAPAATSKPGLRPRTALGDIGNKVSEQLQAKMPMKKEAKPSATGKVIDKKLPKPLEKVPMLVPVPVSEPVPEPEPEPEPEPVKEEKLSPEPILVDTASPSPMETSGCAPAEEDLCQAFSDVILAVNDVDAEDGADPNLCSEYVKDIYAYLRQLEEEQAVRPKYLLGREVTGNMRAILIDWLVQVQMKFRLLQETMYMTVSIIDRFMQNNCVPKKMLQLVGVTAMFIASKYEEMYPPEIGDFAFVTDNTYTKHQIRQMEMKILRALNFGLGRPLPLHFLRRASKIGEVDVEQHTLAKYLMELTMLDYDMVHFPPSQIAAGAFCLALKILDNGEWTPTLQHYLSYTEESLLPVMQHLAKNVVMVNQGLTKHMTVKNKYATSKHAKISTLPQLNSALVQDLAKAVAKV

| Structure (SMILES) | IC50 (CDK1/Cyclin B) | IC50 (CDK2/Cyclin A) | IC50 (CDK5/p25) | IC50 (CDK7/Cyclin H/MNAT1) | CDK1/CDK7: Selectivity of CDK7 inhibition over CDK1 inhibition (CDK7/Cyclin H/MNAT1) | CDK2/CDK7: Selectivity of CDK7 inhibition over CDK2 inhibition (CDK7/Cyclin H/MNAT1) | CDK5/CDK7: Selectivity of CDK7 inhibition over CDK5 inhibition (CDK7/Cyclin H/MNAT1) | IC50 (MV4-11) | IC50 (A2780) | IC50 (OVCAR-3) |
| --- | --- | --- | --- | --- | --- | --- | --- | --- | --- | --- |
| CC(C)c1cnn2c(NCc3ccccc3-c3nccc4cc(NC(=O)/C=C/CN(C)C)ccc34)nc(NCC3CCNC(=O)C3)nc12 (racemic) [Compound 30] | > 1000 nM | > 1000 nM | > 1000 nM | 100 to 1000 nM | B (B indicates 50 < [fold] ≤ 500) | B (B indicates 50 < [fold] ≤ 500) | B (B indicates 50 < [fold] ≤ 500) | < 1000 nM | < 1000 nM | < 1000 nM |
| CC(C)c1cnn2c(NCc3ccccc3-c3nccc4cc(NC(=O)/C=C/CN(C)C)ccc34)nc(N3CCC(O)C3)nc12 (racemic) [Compound 37] | > 1000 nM | > 1000 nM | > 1000 nM | 100 to 1000 nM | B (B indicates 50 < [fold] ≤ 500) | B (B indicates 50 < [fold] ≤ 500) | B (B indicates 50 < [fold] ≤ 500) | < 1000 nM | < 1000 nM | < 1000 nM |
| CC(C)c1cnn2c(NCc3ccccc3-c3nccc4cc(NC(=O)/C=C/CN(C)C)ccc34)nc(N3CCCC(O)CC3)nc12 (racemic) [Compound 38] | > 1000 nM | > 1000 nM | > 1000 nM | 100 to 1000 nM | B (B indicates 50 < [fold] ≤ 500) | B (B indicates 50 < [fold] ≤ 500) | B (B indicates 50 < [fold] ≤ 500) | < 1000 nM | < 1000 nM | < 1000 nM |
| CC(C)c1cnn2c(NCc3ccccc3-c3nccc4cc(NC(=O)/C=C/CN(C)C)ccc34)nc(NCCC3CNCCO3)nc12 (racemic) [Compound 51] | > 1000 nM | > 1000 nM | > 1000 nM | < 100 nM | A (A indicates [fold] > 500) | A (A indicates [fold] > 500) | A (A indicates [fold] > 500) | < 1000 nM | < 1000 nM | < 1000 nM |
| CC(C)c1cnn2c(NCc3ccccc3-c3nccc4cc(NC(=O)/C=C/CN(C)C)ccc34)nc(NCC3CNCCO3)nc12 (racemic) [Compound 62] | > 1000 nM | > 1000 nM | > 1000 nM | < 100 nM | A (A indicates [fold] > 500) | A (A indicates [fold] > 500) | A (A indicates [fold] > 500) | < 1000 nM | < 1000 nM | < 1000 nM |
| C=C(F)C(=O)Nc1ccc2c(-c3ccccc3CNc3nc(N[C@H]4CN5CCC4CC5)nc4c(C(C)C)cnn34)nccc2c1 [Compound 176] | > 1000 nM | > 1000 nM | > 1000 nM | < 100 nM | A (A indicates [fold] > 500) | A (A indicates [fold] > 500) | A (A indicates [fold] > 500) |  | < 1000 nM | < 1000 nM |
| C=CC(=O)Nc1ccc2c(-c3ccccc3CNc3nc(Oc4cccnc4)nc4c(C(C)C)cnn34)nccc2c1 [Compound 182] | > 1000 nM | > 1000 nM | > 1000 nM | 100 to 1000 nM | B (B indicates 50 < [fold] ≤ 500) | B (B indicates 50 < [fold] ≤ 500) | B (B indicates 50 < [fold] ≤ 500) |  | < 1000 nM | 1000 to 10000 nM |

Further lines, results first:

| IC50 (CDK1/Cyclin B) | IC50 (CDK2/Cyclin A) | IC50 (CDK5/p25) | IC50 (CDK7/Cyclin H/MNAT1) | CDK1/CDK7: Selectivity of CDK7 inhibition over CDK1 inhibition (CDK7/Cyclin H/MNAT1) | CDK2/CDK7: Selectivity of CDK7 inhibition over CDK2 inhibition (CDK7/Cyclin H/MNAT1) | CDK5/CDK7: Selectivity of CDK7 inhibition over CDK5 inhibition (CDK7/Cyclin H/MNAT1) | IC50 (MV4-11) | IC50 (A2780) | IC50 (OVCAR-3) | Structure (SMILES) |
| --- | --- | --- | --- | --- | --- | --- | --- | --- | --- | --- |
| > 1000 nM | > 1000 nM | > 1000 nM | < 100 nM | A (A indicates [fold] > 500) | A (A indicates [fold] > 500) | A (A indicates [fold] > 500) |  | < 1000 nM | < 1000 nM | C=C(F)C(=O)Nc1ccc2c(-c3ccccc3CNc3nc(N[C@@H]4CCCN(C)C4)nc4c(C(C)C)cnn34)nccc2c1 [Compound 173] |
| > 1000 nM | > 1000 nM | > 1000 nM | < 100 nM | A (A indicates [fold] > 500) | A (A indicates [fold] > 500) | A (A indicates [fold] > 500) |  | < 1000 nM | < 1000 nM | C=C(F)C(=O)Nc1ccc2c(-c3ccccc3CNc3nc(N[C@@H]4CCC(C)(C)NC4)nc4c(C(C)C)cnn34)nccc2c1 [Compound 174] |
| > 1000 nM | > 1000 nM | > 1000 nM | < 100 nM | A (A indicates [fold] > 500) | A (A indicates [fold] > 500) | A (A indicates [fold] > 500) |  | < 1000 nM | < 1000 nM | C=C(F)C(=O)Nc1ccc2c(-c3ccccc3CNc3nc(NC4CCC(C)(C)NC4)nc4c(C(C)C)cnn34)nccc2c1 (centres unmarked) [Compound 175] |
| > 1000 nM | > 1000 nM | > 1000 nM | < 100 nM | A (A indicates [fold] > 500) | A (A indicates [fold] > 500) | A (A indicates [fold] > 500) |  | < 1000 nM | < 1000 nM | C=C(F)C(=O)Nc1ccc2c(-c3ccccc3CNc3nc(OC4CCC(C)(C)NC4)nc4c(C(C)C)cnn34)nccc2c1 (centres unmarked) [Compound 177] |
| > 1000 nM | > 1000 nM | > 1000 nM | < 100 nM | A (A indicates [fold] > 500) | A (A indicates [fold] > 500) | A (A indicates [fold] > 500) |  | < 1000 nM | < 1000 nM | C=CC(=O)Nc1ccc2c(-c3ccccc3CNc3nc(NC4CCC(C)(C)NC4)nc4c(C(C)C)cnn34)nccc2c1 (centres unmarked) [Compound 178] |
| > 1000 nM | > 1000 nM | > 1000 nM | < 100 nM | A (A indicates [fold] > 500) | A (A indicates [fold] > 500) | A (A indicates [fold] > 500) |  | < 1000 nM | < 1000 nM | CC(C)c1cnn2c(NCc3ccccc3-c3nccc4cc(NC(=O)/C=C/CN(C)C)ccc34)nc(NC3CCC(C)(C)NC3)nc12 (centres unmarked) [Compound 179] |
| > 1000 nM | > 1000 nM | > 1000 nM | < 100 nM | A (A indicates [fold] > 500) | A (A indicates [fold] > 500) | A (A indicates [fold] > 500) |  | < 1000 nM | < 1000 nM | CC(C)c1cnn2c(NCc3ccccc3-c3nccc4cc(NC(=O)/C=C/CN5CCOCC5)ccc34)nc(NC3CCC(C)(C)NC3)nc12 (centres unmarked) [Compound 180] |
| > 1000 nM | > 1000 nM | > 1000 nM | < 100 nM | A (A indicates [fold] > 500) | A (A indicates [fold] > 500) | A (A indicates [fold] > 500) |  | < 1000 nM | < 1000 nM | C=C(C)C(=O)Nc1ccc2c(-c3ccccc3CNc3nc(NC4CCC(C)(C)NC4)nc4c(C(C)C)cnn34)nccc2c1 (centres unmarked) [Compound 181] |
